Measurements from patent US11370774B2, “Substituted benzofuran, benzopyrrole, benzothiophene, and structurally related complement inhibitors” (BioCryst Pharmaceuticals, Inc., priority 2018, dated 2022).

molecular target: Factor D (Homo sapiens (Human), UniProt P00746); assay: Factor D esterolytic assay (Z-Lys-SBzl substrate, DTNB, 405 nm); type: biochemical; conditions: Z-Lys-SBzl 1.29 mM, pH 7.5, 10% DMSO, tested a minimum of three times, read-out: Measured Ki (IC50) Value for Compounds: IC50
Procedure, shortened: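 Thioester hydrolysis (Z-Lys-SBzl, 1.29 mM) by human Factor D ([…]) detected through DTNB color at 405 nm over 600 sec, minus 690 nm background. Buffer: 100 mM HEPES pH 7.5, 500 mM NaCl, 10% DMSO; optional room-temperature preincubation before substrate. IC50 derived from percent rate inhibition; at least three runs.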

Sequence of Factor D (P00746 26-253): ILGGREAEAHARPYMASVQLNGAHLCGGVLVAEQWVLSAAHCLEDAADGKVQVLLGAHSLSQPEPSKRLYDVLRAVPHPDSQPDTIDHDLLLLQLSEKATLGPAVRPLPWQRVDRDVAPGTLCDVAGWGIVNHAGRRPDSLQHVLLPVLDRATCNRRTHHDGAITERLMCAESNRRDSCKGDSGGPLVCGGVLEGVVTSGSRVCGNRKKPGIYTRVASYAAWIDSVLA

IC50, < 1000 nM:
COCc1cc2cc(COc3cc(C)ccc3CC(=O)O)cc(-c3cccc(CN)c3F)c2o1 [Compound 444c, 2-(2-((7-(3-(aminomethyl)-2-fluorophenyl)-2-(methoxymethyl)benzofuran-5-yl)methoxy)-4-methylphenyl)acetic acid]
COCc1cc2cc(COc3cc(CN)ccc3CC(=O)O)cc(-c3cccc(CN)c3)c2o1 [Compound 445c, 2-(4-(aminomethyl)-2-((7-(3-(aminomethyl)phenyl)-2-(methoxymethyl)benzofuran-5-yl)methoxy)phenyl)acetic acid]
NCc1cccc(-c2cc(COc3cc(CN)ccc3CC(=O)O)cc3cc(CO)oc23)c1 [Compound 446c, 2-(4-(aminomethyl)-2-((7-(3-(aminomethyl)phenyl)-2-(hydroxymethyl)benzofuran-5-yl)methoxy)phenyl)acetic acid]
COc1ccc(CC(=O)O)c(OCc2cc(-c3ccnc(CN)c3)c3ccn(C(C)C)c3c2)c1 [Compound 447d, 2-(2-((4-(2-(aminomethyl)pyridin-4-yl)-1-isopropyl-1H-indol-6-yl)methoxy)-4-methoxyphenyl)acetic acid]
COc1ccc(CC(=O)O)c(OCc2cc(-c3ccnc(CN)c3F)c3ccn(C(C)C)c3c2)c1 [Compound 448c, 2-(2-((4-(2-(aminomethyl)-3-fluoropyridin-4-yl)-1-isopropyl-1H-indol-6-yl)methoxy)-4-methoxyphenyl)acetic acid]
CC(C)n1ccc2c(-c3cccc(CN)c3)cc(COc3cc(F)ccc3CC(=O)O)cc21 [Compound 449c, 2-(2-((4-(3-(aminomethyl)phenyl)-1-isopropyl-1H-indol-6-yl)methoxy)-4-fluorophenyl)acetic acid]
CC(C)n1ccc2c(-c3cccc(CN)c3F)cc(COc3cc(F)ccc3CC(=O)O)cc21 [Compound 450b, 2-(2-((4-(3-(aminomethyl)-2-fluorophenyl)-1-isopropyl-1H-indol-6-yl)methoxy)-4-fluorophenyl)acetic acid]
NCc1ccc(CC(=O)O)c(OCc2cc(-c3ccnc(CN)c3)c3occc3c2)c1 [Compound 451c, 2-(4-(aminomethyl)-2-((7-(2-(aminomethyl)pyridin-4-yl)benzofuran-5-yl)methoxy)phenyl)acetic acid]
COCc1cc2cc(COc3cc(C)ccc3CC(=O)O)cc(-c3ccnc(CN)c3F)c2o1 [Compound 453d, 2-(2-((7-(2-(aminomethyl)-3-fluoropyridin-4-yl)-2-(methoxymethyl)benzofuran-5-yl)methoxy)-4-methylphenyl)acetic acid]
COCc1cc2cc(COc3cc(C)ccc3CC(=O)O)cc(-c3ccnc(CN)c3)c2o1 [Compound 454d, 2-(2-((7-(2-(aminomethyl)pyridin-4-yl)-2-(methoxymethyl)benzofuran-5-yl)methoxy)-4-methylphenyl)acetic acid]
NCc1ccc(CC(=O)O)c(OCc2cc(-c3cccc(CN)c3F)c3occc3c2)c1 [Compound 456c, 2-(4-(aminomethyl)-2-((7-(3-(aminomethyl)-2-fluorophenyl)benzofuran-5-yl)methoxy)phenyl)acetic acid]
NCc1cccc(-c2cc(COc3ccccc3CC(=O)O)cc3cc(COc4ccccc4)oc23)c1 [Compound 457c, 2-(2-((7-(3-(aminomethyl)phenyl)-2-(phenoxymethyl)benzofuran-5-yl)methoxy)phenyl)acetic acid]
COCc1cc2cc(COc3cc(C#N)ccc3CC(=O)O)cc(-c3cccc(CN)c3)c2o1 [Compound 458b, 2-(2-((7-(3-(aminomethyl)phenyl)-2-(methoxymethyl)benzofuran-5-yl)methoxy)-4-cyanophenyl)acetic acid]
Cc1oc2c(-c3cccc(CN)c3)cc(COc3ccccc3CC(=O)O)cc2c1-c1ccoc1 [Compound 459h, 2-(2-((7-(3-(aminomethyl)phenyl)-3-(furan-3-yl)-2-methylbenzofuran-5-yl)methoxy)phenyl)acetic acid]
Cc1cc2c(-c3ccnc(CN)c3)cc(COc3ccccc3CC(=O)O)cc2o1 [Compound 461c, 2-(2-((4-(2-(aminomethyl)pyridin-4-yl)-2-methylbenzofuran-6-yl)methoxy)phenyl)acetic acid]
COCc1cc2cc(COc3ccc(F)cc3CC(=O)O)cc(-c3cccc(CN)c3)c2o1 [Compound 462c, 2-(2-((7-(3-(aminomethyl)phenyl)-2-(methoxymethyl)benzofuran-5-yl)methoxy)-5-fluorophenyl)acetic acid]
COCc1cc2cc(COc3ccc(F)cc3CC(=O)O)cc(-c3cccc(CN)c3F)c2o1 [Compound 463b, 2-(2-((7-(3-(aminomethyl)-2-fluorophenyl)-2-(methoxymethyl)benzofuran-5-yl)methoxy)-5-fluorophenyl)acetic acid]
COc1ccc(CC(=O)O)c(OCc2cc(-c3ccnc(CN)c3F)c3occc3c2)c1 [Compound 464d, 2-(2-((7-(2-(aminomethyl)-3-fluoropyridin-4-yl)benzofuran-5-yl)methoxy)-4-methoxyphenyl)acetic acid]
COc1ccc(CC(=O)O)c(OCc2cc(-c3cccc(CN)c3F)c3occc3c2)c1 [Compound 465b, 2-(2-((7-(3-(aminomethyl)-2-fluorophenyl)benzofuran-5-yl)methoxy)-4-methoxyphenyl)acetic acid]
COCc1cc2cc(COc3cc(OC)ccc3CC(=O)O)cc(-c3cccc(CN)c3)c2o1 [Compound 466c, 2-(2-((7-(3-(aminomethyl)phenyl)-2-(methoxymethyl)benzofuran-5-yl)methoxy)-4-methoxyphenyl)acetic acid]
COCc1cc2cc(COc3cc(OC)ccc3CC(=O)O)cc(-c3cccc(CN)c3F)c2o1 [Compound 467b, 2-(2-((7-(3-(aminomethyl)-2-fluorophenyl)-2-(methoxymethyl)benzofuran-5-yl)methoxy)-4-methoxyphenyl)acetic acid]
NCc1cccc(-c2cc(COc3c(CC(=O)O)cccc3-c3ccoc3)cc3ccoc23)c1 [Compound 468h, 2-(2-((7-(3-(aminomethyl)phenyl)benzofuran-5-yl)methoxy)-3-(furan-3-yl)phenyl)acetic acid]
CCc1ccc(CC(=O)O)c(OCc2cc(-c3cccc(CN)c3)c3oc(F)cc3c2)c1 [Compound 469g, 2-(2-((7-(3-(aminomethyl)phenyl)-2-fluorobenzofuran-5-yl)methoxy)-4-ethylphenyl)acetic acid]
CCc1ccc(CC(=O)O)c(OCc2cc(-c3cccc(CN)c3F)c3oc(F)cc3c2)c1 [Compound 470b, 2-(2-((7-(3-(aminomethyl)-2-fluorophenyl)-2-fluorobenzofuran-5-yl)methoxy)-4-ethylphenyl)acetic acid]
COCc1cc2cc(COc3cc(OC)ccc3CC(=O)O)cc(-c3ccnc(CN)c3F)c2o1 [Compound 471d, 2-(2-((7-(2-(aminomethyl)-3-fluoropyridin-4-yl)-2-(methoxymethyl)benzofuran-5-yl)methoxy)-4-methoxyphenyl)acetic acid]
COCc1cc2cc(COc3cc(OC)ccc3CC(=O)O)cc(-c3ccnc(CN)c3)c2o1 [Compound 472b, 2-(2-((7-(2-(aminomethyl)pyridin-4-yl)-2-(methoxymethyl)benzofuran-5-yl)methoxy)-4-methoxyphenyl)acetic acid]
NCc1cccc(-c2c(F)c(COc3ccccc3CC(=O)O)cc3ccoc23)c1 [Compound 473e, 2-(2-((7-(3-(aminomethyl)phenyl)-6-fluorobenzofuran-5-yl)methoxy)phenyl)acetic acid]
CC(C)n1ccc2c(-c3cccc(CN)c3)cc(COc3ccc(F)cc3CC(=O)O)cc21 [Compound 474c, 2-(2-((4-(3-(aminomethyl)phenyl)-1-isopropyl-1H-indol-6-yl)methoxy)-5-fluorophenyl)acetic acid]
COc1ccc(OCc2cc(-c3cccc(CN)c3F)c3ccn(C(C)C)c3c2)c(CC(=O)O)c1 [Compound 475g, 2-(2-((4-(3-(aminomethyl)-2-fluorophenyl)-1-isopropyl-1H-indol-6-yl)methoxy)-5-methoxyphenyl)acetic acid]
COc1cccc(CC(=O)O)c1OCc1cc(-c2cccc(CN)c2)c2occc2c1 [Compound 476f, 2-(2-((7-(3-(aminomethyl)phenyl)benzofuran-5-yl)methoxy)-3-methoxyphenyl)acetic acid]
COCc1cc2cc(COc3cc(F)ccc3CC(=O)O)cc(-c3cccc(CN)c3)c2o1 [Compound 477c, 2-(2-((7-(3-(aminomethyl)phenyl)-2-(methoxymethyl)benzofuran-5-yl)methoxy)-4-fluorophenyl)acetic acid]
COCc1cc2cc(COc3cc(F)ccc3CC(=O)O)cc(-c3cccc(CN)c3F)c2o1 [Compound 478b, 2-(2-((7-(3-(aminomethyl)-2-fluorophenyl)-2-(methoxymethyl)benzofuran-5-yl)methoxy)-4-fluorophenyl)acetic acid]
CC(=O)c1ccc(CC(=O)O)c(OCc2cc(-c3cccc(CN)c3F)c3occc3c2)c1 [Compound 479d, 2-(4-acetyl-2-((7-(3-(aminomethyl)-2-fluorophenyl)benzofuran-5-yl)methoxy)phenyl)acetic acid]
